# Assay results reported in patent publication US20230219912A1, “HALOGENATED BENZOTHIADIAZINES FOR THE TREATMENT OF CANCER” (BOARD OF REGENTS OF THE UNIVERSITY OF NEBRASKA, priority 2020, published 2023).
# Where “and” joins values, the source holds several entries; their conditions need not be identical. Equal entries are not always repeated. Entries after “also recorded” stand apart in the source; their conditions may differ. Where two headings read alike, the source gives them in different places.
# Tests used:
# [1] = tested on: Mitochondrial respiratory complex II (CII); details: literature, cited from earlier work
# [2] = molecular target: T1, Mitochondrial respiratory complex II (Rattus norvegicus, UniProt P21913+Q641Z9+Q6PCT8+Q920L2); assay: Mitochondrial respiratory complex II inhibition assay; type: biochemical; details: for inhibition at 100 µM: read-out: inhibition of CII
# T1 construct: measured spectrophotometrically using isolated rat heart mitochondria; from tissue; host or cells: rat heart mitochondria / sub-mitochondrial particles
# T1 sequence (Q920L2 35-656): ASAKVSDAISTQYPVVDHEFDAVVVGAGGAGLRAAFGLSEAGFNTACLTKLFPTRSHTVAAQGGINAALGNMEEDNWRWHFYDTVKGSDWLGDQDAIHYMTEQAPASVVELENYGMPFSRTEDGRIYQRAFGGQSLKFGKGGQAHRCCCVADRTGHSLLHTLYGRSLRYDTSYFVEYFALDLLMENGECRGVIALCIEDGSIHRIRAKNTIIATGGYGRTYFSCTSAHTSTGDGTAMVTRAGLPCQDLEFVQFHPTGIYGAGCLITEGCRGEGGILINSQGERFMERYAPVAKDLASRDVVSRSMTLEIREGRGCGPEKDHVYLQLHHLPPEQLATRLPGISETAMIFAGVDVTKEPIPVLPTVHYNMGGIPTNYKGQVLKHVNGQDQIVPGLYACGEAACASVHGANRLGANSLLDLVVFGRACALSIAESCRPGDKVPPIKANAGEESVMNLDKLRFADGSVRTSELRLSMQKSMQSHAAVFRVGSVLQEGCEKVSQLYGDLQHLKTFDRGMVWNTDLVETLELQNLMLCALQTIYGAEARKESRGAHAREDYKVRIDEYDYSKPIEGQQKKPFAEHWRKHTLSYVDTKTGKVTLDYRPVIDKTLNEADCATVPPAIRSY
# T1 sequence (P21913 31-282): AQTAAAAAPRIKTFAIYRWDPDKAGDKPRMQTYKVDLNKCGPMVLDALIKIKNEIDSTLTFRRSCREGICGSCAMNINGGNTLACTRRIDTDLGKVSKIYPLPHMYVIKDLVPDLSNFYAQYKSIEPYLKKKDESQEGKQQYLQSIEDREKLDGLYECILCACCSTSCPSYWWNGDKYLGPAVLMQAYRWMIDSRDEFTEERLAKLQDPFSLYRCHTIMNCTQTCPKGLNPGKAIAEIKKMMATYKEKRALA
# T1 sequence (Q641Z9 1-169): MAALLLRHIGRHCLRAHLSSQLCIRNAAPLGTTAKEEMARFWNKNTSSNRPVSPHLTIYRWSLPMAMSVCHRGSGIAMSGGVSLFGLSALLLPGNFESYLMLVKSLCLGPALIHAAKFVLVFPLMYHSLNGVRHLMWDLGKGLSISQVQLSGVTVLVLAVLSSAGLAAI
# T1 sequence (Q6PCT8 57-159): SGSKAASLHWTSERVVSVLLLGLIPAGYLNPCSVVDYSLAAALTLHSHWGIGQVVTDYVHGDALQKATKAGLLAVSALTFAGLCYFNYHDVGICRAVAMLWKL
# Procedure: The assay was performed as follows. Mitochondria were isolated either from fresh rat hearts or by differential centrifugation in sucrose-based buffer as previously described.^24 Complex II enzymatic activity was determined spectrophotometrically as the rate of succinate-driven, co-enzyme Q2-linked reduction of dichlorophenolindophenol (DCPIP).^49 Mitochondria or sub-mitochondrial particles were incubated in phosphate buffer (pH 7.4) containing 40 μM DCPIP, 1 mM KCN, 10 μM rotenone, and 50 μM co-enzyme Q2. The rate of reduction of DCPIP to DCPIPH2 was followed at […] (ε=21,000 M-1). Varying amounts of succinate and inhibitors were used to determine an IC50 value. At the end of each run thenoyltrifluoroacetone (1 mM) was added and the residual TTFA-insensitive rate subtracted.
# [3] = tested on: 22Rv1 prostate cancer cells; assay: MTS cytotoxicity assay in 22Rv1 prostate cancer cells; details: Homo sapiens; for cytotoxicity at 100 µM: 22Rv1, 48 h, read-out: reduction of 22Rv1 cell viability
# Procedure: (§1) The assay was performed as follows. To determine the cell growth inhibition ability of the synthesized compounds the (3-(4,5-dimethylthiazol-2-yl)-5-(3-carboxymethoxyphenyl)-2-(4-sulfophenyl)-2H-tetrazolium) (MTS) assay used according to the manufacturer's recommended protocol. Stock solutions of the synthesized compounds were prepared in DMSO. Cells were seeded at a density of 1×10^5 cells in 96-well plates. After 24 hours, cells were treated at the indicated concentrations of test compounds, limiting the final DMSO concentration to less than 1%. After incubation at 37° C. in an environment of 5% CO2 for 48-72 hours, 10 μL of MTS reagent (CellTiter 96© AQueous One Solution Reagent) was added to each well and incubated at the above mentioned conditions for 2-4 hr. Absorbance was recorded at 490 nm on a BioTek Synergy Mx multimode plate reader and the viability of cells were plotted as percentage of controls.
# [4] = tested on: phosphorylated vascular endothelial growth factor receptor-2 (VEGFR2); assay: Western blot of pVEGFR2 in VEGF-treated HUVEC cells; type: cell-based, human; details: 20 μM, VEGF 10 ng/mL, 5 min
# Procedure: Cells were treated with test compounds (20 μM) along with VEGF (10 ng/mL) for 5 min. The DMSO was used as a negative control, whereas DMSO+VEGF was used as a positive control. Cells were lysed using RIPA buffer (10 mmol/L Tris-HCl, 1 mmol/L EDTA, 0.5 mmol/L EGTA, 1% Triton X-100, 0.1% sodium deoxycholate, 0.1% SDS and 140 mmol/L NaCl), supplemented with protease and phosphatase inhibitors (Halt Protease and Phosphatase Inhibitor). Cell lysates were centrifuged, and the supernatants were mixed with appropriate amount of 5×SDS loading buffer. Proteins were resolved on polyacrylamide gel and transferred onto nitrocellulose/PVDF membrane, blocked for 1 hour with 10% milk block prepared in 0.1% Tween 20 in 1×PBS (PBST), and treated with pVEGFR2 primary antibody at 4° C. overnight. The membrane was washed thrice with PBST, 5 minutes each, and treated with secondary antibody for 1 hour. The membrane was further washed three times, 5 minutes each, with PBST and developed using chemiluminescence, and the bands were analyzed using densitometry.
# [5] = tested on: MDA-MB-468 triple negative breast cancer cells; assay: MTS cytotoxicity assay in MDA-MB-468 triple negative breast cancer cells; type: cell-based; details: Homo sapiens, MDA-MB-468; 72 hours; mean ± SD n = 3
# Procedure: The assay was performed as follows.
# Derivatives were dosed at 10, 50 and 100 μM for 24, 48 and 72 hours and cell viability measured by MTS assay (FIG. 5).
# [6] = tested on: human embryonic kidney (HEK293) cells; assay: MTS cytotoxicity assay in HEK293 cells; type: cell-based; details: 72 hours, mean ± SD n = 3
# Procedure: as §1
# Cytotoxicity was also evaluated by using the low tumorigenic HEK293 cells at 50 μM concentration.
# [7] = tested on: VEGF-induced proliferation of HUVEC cells; assay: VEGF-induced HUVEC proliferation, MTT assay; type: cell-based, human; details: for inhibition of VEGF-induced HUVEC proliferation (in words): 20 μM; for inhibition at 20 µM: Homo sapiens, read-out: % Inhibition of Proliferation
# Procedure: The assay was performed as follows. Vascular endothelial growth factor (VEGF, Cat #SRP3182) was purchased from Sigma. […] Stock solutions of all compounds were prepared in DMSO and were serially diluted for cell culture treatment maintaining the final DMSO concentration at less than 1%. Cell proliferation of HUVECs was evaluated through the MTT (3-[4, 5-dimethylthiazol-2-yl]-2, 5-dimethyltetrazolium bromide) colorimetric assay, as previously described.^28 The HUVECs were seeded at a density of 10,000 cells/well in 24 well plates in serum-containing medium and cultured overnight. Cells were starved with 300 μL of assay media (0.1% BSA+0.1% FBS in basal medium) for 24 h. Then, cells were treated with 500 μL of assay medium (control group), VEGF (10 ng/mL, positive control group) or VEGF along with compounds (20 μM). After 48 h of culture, 50 μL of MTT stock (5 mg/mL in PBS) was added to each well and incubated for 2 h at 37° C. to allow the formation of dark blue formazan crystals in the metabolically active cells. The medium was removed, the cells were washed with PBS (pH 7.4), and 100 μL of acidified isopropanol (0.33 mL HCl in 100 mL isopropanol) was added to each well and incubated for 5 min with thorough agitation to solubilize the formazan crystals. An equal volume of the solution was transferred to a 96-well plate and the absorbance was immediately measured using a microplate reader at a wavelength of 570 nm.
# [8] = 100 μM, relative to DMSO control
# [9] = HUVEC, 48 h, 20 μM compound, VEGF 10 ng/mL, HUVEC, 48 h, relative to VEGF treated cells, mean ± SEM n = 3
Structure (SMILES),IC50 [5],IC50 [6],inhibition of VEGF-induced HUVEC proliferation (in words) ([7]; VEGF 10 ng/mL),"inhibition at 20 µM [7, 9]",other results
O=C(O)CC(=O)O [Malonate],,,,,IC50 [1]: 40 µM
"O=S1(=O)N=C(NCc2ccc(OC(F)(F)F)cc2)Nc2ccc(Br)cc21 [Compound 30c, 7-bromo-3-((4-(trifluoromethoxy)benzyl)amino)-4H-benzo[e][1,2,4]thiadiazine 1,1-dioxide]",,,,,"inhibition at 100 µM [2, 8]: 21%; cytotoxicity at 100 µM [3]: 45%; attenuation of pVEGFR2 expression [4]: outperformed the parent compound"
"O=S1(=O)N=C(NCc2ccc(F)cc2F)Nc2cc(Cl)ccc21 [Compound 29b, 6-chloro-3-((2,4-difluorobenzyl)amino)-4H-benzo[e][1,2,4]thiadiazine 1,1-dioxide]",84.6 µM,129 ± 12.2 µM,suppressed HUVEC proliferation; also recorded: enhanced activity,167 ± 14%,
"O=S1(=O)N=C(NCc2ccc(F)cc2F)Nc2ccc(Cl)cc21 [Compound 63e, 7-Chloro-3-((2,4-difluorobenzyl)amino)-4H-benzo[e][1,2,4]thiadiazine 1,1-dioxide]",45.5 µM,58.9 ± 13.7 µM,suppressed HUVEC proliferation; also recorded: enhanced activity,133 ± 12%,
"O=S1(=O)N=C(NCc2ccccc2OC(F)(F)F)Nc2cc(Cl)ccc21 [Compound 43b, 6-Chloro-3-((2-(trifluoromethoxy)benzyl)amino)-4H-benzo[e][1,2,4]thiadiazine 1,1-dioxide]",14.9 µM,30.5 µM,suppressed HUVEC proliferation; also recorded: enhanced activity,124 ± 4%,
"COc1[nH]c(=O)c(C(=O)[C@@H](C)C[C@H](C)[C@@H](Cl)CCl)c(O)c1OC [Atpenin A5, reference compound]",,,,,"inhibition of CII ([2]; 0.1 μM): 93%; IC50 ([2]; positive control, read-out: CII IC50): 0.0033 µM; IC50 [1]: 0.0033 µM; IC50 ([1]; listed as atpenin A5): 0.0036 to 0.01 µM"
"O=S1(=O)N=C(NC2CCCC2)Nc2ccc(Cl)cc21 [Compound 59e, 7-Chloro-3-(cyclopentylamino)-4H-benzo[e][1,2,4]thiadiazine 1,1-dioxide]",,,suppressed HUVEC proliferation; also recorded: enhanced activity,133 ± 6%,attenuation of pVEGFR2 expression [4]: outperformed the parent compound; also recorded: most potent
"CC(NC1=NS(=O)(=O)c2ccccc2N1)c1ccccc1 (centres unmarked) [Compound 24d, 3-((1-phenylethyl)amino)-4H-benzo[e][1,2,4]thiadiazine 1,1-dioxide]",,,,,cytotoxicity at 100 µM [3]: ~30%; attenuation of pVEGFR2 expression [4]: outperformed the parent compound; also recorded: most potent
"O=S1(=O)N=C(NCCCc2ccccc2)Nc2cc(Cl)ccc21 [Compound 23b, 6-chloro-3-((3-phenylpropyl)amino)-4H-benzo[e][1,2,4]thiadiazine 1,1-dioxide]",91.9 ± 16.8 µM,111 ± 7.4 µM,suppressed HUVEC proliferation; also recorded: enhanced activity,178 ± 8%,"inhibition at 100 µM [2, 8]: 30%; cytotoxicity at 100 µM [3]: ~35%"
Cc1c(C)c2c(c(C)c1OC(=O)CCC(=O)O)CC[C@@](C)(CCC[C@H](C)CCC[C@H](C)CCCC(C)C)O2 [α-Tocopheryl succinate],,,,,IC50 [1]: 42 µM
"CCCCCC(=O)c1c(O)nc(OC)c(OC)c1O [AA5-16c, reference compound]",6.71 ± 0.8 µM,25.9 ± 2.4 µM,,,"cytotoxicity at 20 µM ([3]; 22Rv1, read-out: reduction of 22Rv1 cell viability): 60%; IC50 [1]: 0.064 µM; ligand-lipophilicity efficiency [1]: 5.62"
O=C(CC(=O)C(F)(F)F)c1cccs1 [Thenoyltrifluoroacetone],,,,,IC50 [1]: 30 µM
"O=S1(=O)N=C(NCc2ccccc2)Nc2cc(Cl)ccc21 [Compound 21b, 3-(benzylamino)-6-chloro-4H-benzo[e][1,2,4]thiadiazine 1,1-dioxide]",64.2 ± 14.2 µM,102 ± 16.1 µM,suppressed HUVEC proliferation; also recorded: enhanced activity,,"inhibition of CII [2, 8]: inactive; inhibition at 100 µM [2, 8]: 0%; cytotoxicity at 100 µM [3]: ~35%; % Inhibition of Proliferation ([7]; 20 μM compound, VEGF 10 ng/mL, HUVEC, 48 h, relative to VEGF treated cells, mean ± SEM n = 3, 20 µM): 200±12% and 125±10%"
"COc1cccc(CNC2=NS(=O)(=O)c3cc(Cl)ccc3N2)c1 [Compound 62e, 7-Chloro-3-((3-methoxybenzyl)amino)-4H-benzo[e][1,2,4]thiadiazine 1,1-dioxide]",,,suppressed HUVEC proliferation; also recorded: enhanced activity,,"inhibition at 20 µM ([7]; HUVEC, 48 h): 96 ± 16%; attenuation of pVEGFR2 expression [4]: outperformed the parent compound; also recorded: most potent"
"O=S1(=O)N=C(NCCCCc2ccccc2)Nc2ccc(Cl)cc21 [Compound 65e, 7-Chloro-3-((4-phenylbutyl)amino)-4H-benzo[e][1,2,4]thiadiazine 1,1-dioxide]",,23.4 µM,suppressed HUVEC proliferation; also recorded: enhanced activity,116 ± 16%,
"CNC(=O)c1cc(Oc2ccc(NC(=O)Nc3ccc(Cl)c(C(F)(F)F)c3)cc2)ccn1 [Sorafenib, reference compound]",7.31 ± 1.9 µM,2.95 ± 0.1 µM,,,
"Cc1cccc(CNC2=NS(=O)(=O)c3cc(Cl)ccc3N2)c1 [Compound 58e, 7-Chloro-3-((3-methylbenzyl)amino)-4H-benzo[e][1,2,4]thiadiazine1,1-dioxide]",,,suppressed HUVEC proliferation; also recorded: enhanced activity,,"inhibition at 20 µM ([7]; HUVEC, 48 h): 145 ± 6%; attenuation of pVEGFR2 expression [4]: outperformed the parent compound"
"O=S1(=O)N=C(NCCCc2ccccc2)Nc2ccc(Cl)cc21 [Compound 60e, 7-Chloro-3-((3-phenylpropyl)amino)-4H-benzo[e][1,2,4]thiadiazine 1,1-dioxide]",,30.9 µM,suppressed HUVEC proliferation; also recorded: enhanced activity,92 ± 15%,
